{
  "source": "paper PMC12751141",
  "about": "“Disrupting α-Synuclein–ClpP interaction restores mitochondrial function and attenuates neuropathology in Parkinson’s disease models” (Molecular Neurodegeneration, 2025)",
  "type_in_all_cases": "in vivo, mouse",
  "key": {"[1]": {"system": "mThy1-hSNCA mice (midbrain)", "assay": "Midbrain western blot / co-immunoprecipitation in mThy1-hSNCA mice", "method": "Tissues were homogenized and incubated on ice for 30 min in total lysis buffer (50 mM Tris–HCl, pH 7.5, 150 mM NaCl, 1% Triton X-100, and protease inhibitor). Tissues were then spun at 12,000 rpm for 10 min at 4 °C; the resulting supernatant was triton-soluble fraction. The pellet was further suspended in total lysis buffer with 1% SDS, sonicated and incubated at 100 °C for 3 min, and followed by 20-s vortex. After two more repeats of 100 °C incubation and vortex, the solution was spun at 12,000 rpm for 10 min at 4 °C; the resulting supernatant was triton-insoluble fraction.\nProtein concentrations were measured using the Bradford assay. Proteins (30 µg) were then resuspended in Laemmni buffer, loaded on sodium dodecyl sulfate-polyacrylamide gel electrophoresis gels, and transferred to nitrocellulose membranes. The membranes were probed with the indicated antibodies and visualized by electrochemiluminescence.\n(§1) C57BL/6 N-Tg (Thy1-SNCA)15Mjff/J (JAX: 017682) breeders (C57Bl/6NJ genetic background) were purchased from Jackson Laboratories. The mice were mated, bred, and genotyped in the animal facility of Case Western Reserve University. All mice were maintained at a 12-hour light/dark cycle (on 6 am, off 6 pm). All randomization and peptide treatments in mThy1-hSNCA mice were prepared by an experimenter not associated with the behavioral and neuropathology analysis. Only male mice were used in the study. mThy1-hSNCA transgenic mice and their age-matched WT littermates were implanted with a 28-day subcutaneous osmotic pump (Alzet, Cupertino CA, Model 2004) containing either TAT control peptide or CS2 peptide, which delivered the peptides at indicated rate (1 or 3 or 10 mg/kg/day). The pump was replaced once every four weeks. All mice were sacrificed at age of 10-month for neuropathology assessment.\nCells or tissues were lysed in total lysis buffer (50mM Tris-HCl, pH 7.5, 150mM NaCl, 1% Triton X-100, and protease inhibitor). Total protein lysates (800 µg) were incubated with the indicated antibodies overnight at 4 °C followed by the addition of protein A/G beads (sc-2003, Santa Cruz) for 2 h at 4 °C. Various recombinant αSyn and Clpp (500 ng) were incubated in in vitro interaction buffer (20mM Tris-HCl pH 7.5, 100mM KCl, 2mM MgCl2 and 0.1% Triton-X100) for 30 min at room temperature, and then incubated with indicated antibodies overnight at 4 °C followed by the addition of protein A/G beads for 2 h at 4 °C. The beads with immuno-precipitates were pulled down at 4000 g and washed four times with total lysis buffer/in vitro interaction buffer in the presence of 0.1% Triton X-100 and were analyzed by western blot analysis."}, "mThy1-hSNCA mice": {"system": "mThy1-hSNCA mice", "assay": "Open-field test in mThy1-hSNCA mice", "conditions": "3 mg/kg/day s.c.; age of 8-month; n = 12-15 mice/group; vs TAT", "method": "as §1\nThe locomotor activity of all experimental mice was assessed in an open field chamber at 8-month-old. Briefly, the mice were placed in the center of an activity chamber (Omnitech Electronics) and allowed to explore the chamber while being tracked using an automated infrared tracking system (Vertax, Omnitech Electronics). A 24-hour locomotor activity analysis was performed. Both horizontal and vertical activity/movements were recorded."}, "wild-type littermates": {"system": "wild-type littermates", "assay": "Observed effects on wild-type littermates", "conditions": "3 mg/kg/day s.c.; WT littermates", "method": "as §1\nAll behavioral analyses were conducted by an experimenter who was blinded to the genotypes and treatment groups. All mice were subjected to a series of behavioral measurements to monitor locomotor activity (open field test), spontaneous spatial working memory (Y-maze test), and motor coordination (Rotarod test)."}, "[2]": {"conditions": "3 and 10 mg/kg/day s.c., 8 weeks, n = 3 mice/group"}},
  "data": [
    {"smiles": "CC(C)[C@H](NC(=O)CNC(=O)CNC(=O)CCCCCNC(=O)[C@H](CCCNC(=N)N)NC(=O)[C@H](CCCNC(=N)N)NC(=O)[C@H](CCCNC(=N)N)NC(=O)[C@H](CCC(N)=O)NC(=O)[C@H](CCCNC(=N)N)NC(=O)[C@H](CCCNC(=N)N)NC(=O)[C@H](CCCCN)NC(=O)[C@H](CCCCN)NC(=O)[C@H](CCCNC(=N)N)NC(=O)CNC(=O)[C@@H](N)Cc1ccc(O)cc1)C(=O)N[C@H](C(=O)N[C@H](C(=O)N[C@@H](C)C(=O)O)[C@@H](C)O)C(C)C", "note": "[CS2, TAT-C6-GGVVTA]", "values": [
      {"measurement": "ClpP–αSyn interaction in midbrain", "setting": "[1]; 3 mg/kg/day s.c., anti-ClpP IP, n = 3 mice/group", "result": "abolish the interaction between ClpP and αSyn"},
      {"measurement": "other mitochondrial matrix proteins in midbrain", "setting": "[1]; 3 mg/kg/day s.c., western blot of LonP, ClpX, n = 3–5 mice/group", "result": "without affecting other mitochondrial matrix proteins"},
      {"measurement": "ClpP expression in midbrain", "setting": "[1]; [2]", "result": "restored ClpP expression in the midbrain"},
      {"measurement": "detergent-insoluble αSyn in midbrain", "setting": "[1]; [2]", "result": "reduced levels of soluble pS129-αSyn and detergent-insoluble αSyn"},
      {"measurement": "soluble pS129-αSyn in midbrain", "setting": "[1]; [2]", "result": "reduced levels of soluble pS129-αSyn"},
      {"measurement": "ClpP–αSyn interaction, 3 vs 10 mg/kg/day", "setting": "[1]; s.c., comparison with 10 mg/kg/day", "result": "without disparity from 10 mg/kg/day"},
      {"measurement": "locomotor activity, open field", "setting": "mThy1-hSNCA mice", "result": "ameliorated locomotor activity"},
      {"measurement": "effects on wild-type littermates", "setting": "wild-type littermates", "result": "no observable effects on wild-type littermates"}
    ]}
  ]
}
